PubChem BioAssay AID256 (DTP/NCI, 2004)
Toxic doses and inconclusive results are not listed.

Tested on: CD2F1 mice, L1210 leukemia ip, survival T/C
Experiment: NCI In Vivo Anticancer Drug Screen. Data for tumor model L1210 Leukemia (intraperitoneal) in CD2F1 (CDF1) mice
Conditions: higher = longer survival
Procedure, shortened: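 Transplantable tumor in mice; compound-treated vs vehicle-treated groups. Read-out = treated/control ratio of the measured endpoint.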

[1] = endpoint: mean survival time, dose: 100.0 mg/kg/injection, schedule: Q04DX003 (ip), vehicle: saline with Tween-80
[2] = endpoint: mean survival time, dose: 200.0 mg/kg/injection, schedule: Q04DX003 (ip), vehicle: saline with Tween-80
[3] = endpoint: mean survival time, dose: 400.0 mg/kg/injection, schedule: Q04DX003 (ip), vehicle: saline with Tween-80
[4] = endpoint: mean survival time, dose: 100.0 mg/kg/injection, schedule: Q04DX003 (ip), vehicle: saline
[5] = endpoint: mean survival time, dose: 200.0 mg/kg/injection, schedule: Q04DX003 (ip), vehicle: saline
[6] = endpoint: mean survival time, dose: 50.0 mg/kg/injection, schedule: Q01DX009 (ip), vehicle: saline with Tween-80
[7] = endpoint: mean survival time, dose: 100.0 mg/kg/injection, schedule: Q01DX009 (ip), vehicle: saline with Tween-80
[8] = endpoint: mean survival time, dose: 100.0 mg/kg/injection, schedule: Q01DX001 (ip), vehicle: saline with Tween-80
[9] = endpoint: mean survival time, dose: 200.0 mg/kg/injection, schedule: Q01DX001 (ip), vehicle: saline with Tween-80
[10] = endpoint: mean survival time, dose: 400.0 mg/kg/injection, schedule: Q01DX001 (ip), vehicle: saline with Tween-80
[11] = endpoint: mean survival time, dose: 50.0 mg/kg/injection, schedule: Q04DX003 (ip), vehicle: saline
[12] = endpoint: mean survival time, dose: 200.0 mg/kg/injection, schedule: Q01DX009 (ip), vehicle: saline with Tween-80
[13] = endpoint: mean survival time, dose: 400.0 mg/kg/injection, schedule: Q01DX009 (ip), vehicle: saline with Tween-80
[14] = endpoint: mean survival time, dose: 100.0 mg/kg/injection, schedule: Q04DX002 (ip), vehicle: saline with Tween-80
[15] = endpoint: mean survival time, dose: 200.0 mg/kg/injection, schedule: Q04DX002 (ip), vehicle: saline with Tween-80

With CCCC(=O)Nc1ccc([N+](=O)[O-])cc1OC the T/C [1] was 96 % of control, the T/C [2] was 102 % of control and the T/C [3] was 104 % of control.

In the case of Nc1cc(S(=O)(=O)O)c2cccnc2c1O, the T/C [4] is reported as 114 % of control and the T/C [5] is reported as 108 % of control.

CC1=C/C(=C/c2ccccc2)CC(C)(C)C1 (tested in a mixture with another compound) was tested, and the T/C (endpoint: mean survival time, dose: 25.0 mg/kg/injection, schedule: Q01DX009 (ip), vehicle: saline with Tween-80) was 105 % of control, the T/C [6] was 103 % of control and the T/C [7] was 95 % of control. For the same compound, the T/C [1] was 100 % of control.

For CC1SCCS1, the T/C [8] was 95 % of control, the T/C [9] was 105 % of control and the T/C [10] was 100 % of control.

In the case of OCCCc1nc2ccccc2[nH]1, the T/C [1] is reported as 102 % of control, the T/C [2] is reported as 107 % of control and the T/C [3] is reported as 98 % of control.

For CCCN(CCC)CCCC#N, the T/C [6] was 100 % of control and the T/C [7] was 101 % of control.

CC(=O)CC(C)=O.CC(=O)CC(C)=O.O.O.[Co] was tested, and the T/C (endpoint: mean survival time, dose: 22.0 mg/kg/injection, schedule: Q04DX003 (ip), vehicle: saline with Tween-80) was 111 % of control, the T/C (endpoint: mean survival time, dose: 22.0 mg/kg/injection, schedule: Q04DX003 (ip), vehicle: saline) was 97 % of control and the T/C (endpoint: mean survival time, dose: 33.0 mg/kg/injection, schedule: Q04DX003 (ip), vehicle: saline with Tween-80) was 114 % of control. The T/C (endpoint: mean survival time, dose: 33.0 mg/kg/injection, schedule: Q04DX003 (ip), vehicle: saline) was 102 % of control, the T/C (endpoint: mean survival time, dose: 50.0 mg/kg/injection, schedule: Q04DX003 (ip), vehicle: saline with Tween-80) was 109 % of control and the T/C [11] was 108 % of control.

In the case of NC(=O)c1cc2ccncc2c2ccccc12, the T/C [1] is reported as 97 % of control, the T/C [2] is reported as 97 % of control and the T/C [3] is reported as 106 % of control.

With CC(C)(CCC(=O)O)c1ccc(O)cc1 the T/C [4] was 101 % of control, the T/C [5] was 103 % of control and the T/C (endpoint: mean survival time, dose: 400.0 mg/kg/injection, schedule: Q04DX003 (ip), vehicle: saline) was 103 % of control.

With CCCC1CC[N-]CC1.CCCC1CC[N-]CC1.[Cl][Cu][Cl] the T/C (endpoint: mean survival time, dose: 3.13 mg/kg/injection, schedule: Q01DX009 (ip), vehicle: saline) was 96 % of control and the T/C (endpoint: mean survival time, dose: 12.5 mg/kg/injection, schedule: Q01DX009 (ip), vehicle: saline) was 94 % of control.

In the case of C1CC[N-]CC1.Oc1ccccc1C=NCCN=Cc1ccccc1O.[Co], the T/C (endpoint: mean survival time, dose: 1.56 mg/kg/injection, schedule: Q04DX002 (ip), vehicle: saline with Tween-80) is reported as 109 % of control and the T/C (endpoint: mean survival time, dose: 3.13 mg/kg/injection, schedule: Q04DX002 (ip), vehicle: saline with Tween-80) is reported as 98 % of control.

CC(=O)NCCc1ccccc1 was tested, and the T/C (endpoint: mean survival time, dose: 100.0 mg/kg/injection, schedule: Q01DX009 (ip), vehicle: Klucel (hydroxypropylcellulose) (HPC)) was 109 % of control, the T/C (endpoint: mean survival time, dose: 100.0 mg/kg/injection, schedule: Q04DX003 (ip), vehicle: saline sonified) was 103 % of control and the T/C (endpoint: mean survival time, dose: 200.0 mg/kg/injection, schedule: Q01DX009 (ip), vehicle: Klucel (hydroxypropylcellulose) (HPC)) was 102 % of control. For the same compound, the T/C (endpoint: mean survival time, dose: 200.0 mg/kg/injection, schedule: Q04DX003 (ip), vehicle: saline sonified) was 109 % of control, the T/C (endpoint: mean survival time, dose: 400.0 mg/kg/injection, schedule: Q01DX009 (ip), vehicle: Klucel (hydroxypropylcellulose) (HPC)) was 104 % of control and the T/C (endpoint: mean survival time, dose: 400.0 mg/kg/injection, schedule: Q04DX003 (ip), vehicle: saline sonified) was 97 % of control.

In the case of CNC(=O)ON=C(c1ccccc1)c1ccccc1, the T/C (endpoint: mean survival time, dose: 100.0 mg/kg/injection, schedule: Q01DX001 (ip), vehicle: saline) is reported as 98 % of control, the T/C (endpoint: mean survival time, dose: 200.0 mg/kg/injection, schedule: Q01DX001 (ip), vehicle: saline) is reported as 104 % of control and the T/C (endpoint: mean survival time, dose: 400.0 mg/kg/injection, schedule: Q01DX001 (ip), vehicle: saline) is reported as 102 % of control.

FC(F)(F)C(Cl)Br (centres undefined) was tested, and the T/C [7] was 98 % of control, the T/C (endpoint: mean survival time, dose: 100.0 mg/kg/injection, schedule: Q01DX009 (ip), vehicle: saline) was 97 % of control and the T/C [12] was 96 % of control. For the same compound, the T/C (endpoint: mean survival time, dose: 200.0 mg/kg/injection, schedule: Q01DX009 (ip), vehicle: saline) was 98 % of control, the T/C [13] was 95 % of control and the T/C (endpoint: mean survival time, dose: 400.0 mg/kg/injection, schedule: Q01DX009 (ip), vehicle: saline) was 103 % of control.

In the case of CC(=O)OCC(=O)[C@@]1(O)CC[C@H]2[C@@H]3CCC4=CC(=O)C=C[C@]4(C)[C@@]3(F)[C@@H](O)C[C@@]21C, the T/C (endpoint: mean survival time, dose: 12.5 mg/kg/injection, schedule: Q04DX003 (ip), vehicle: saline) is reported as 104 % of control, the T/C (endpoint: mean survival time, dose: 25.0 mg/kg/injection, schedule: Q04DX003 (ip), vehicle: saline) is reported as 104 % of control and the T/C [11] is reported as 107 % of control.

For NC(N)=NCCNC(=O)C1CCC(N)C1 (centres undefined), the T/C (endpoint: mean survival time, dose: 0.63 mg/kg/injection, schedule: Q01DX009 (ip), vehicle: saline) was 96 % of control and the T/C (endpoint: mean survival time, dose: 1.25 mg/kg/injection, schedule: Q01DX009 (ip), vehicle: saline) was 96 % of control.

For CSc1nc(NC(C)C)nc(NC(C)C)n1, the T/C [6] was 117 % of control, the T/C [7] was 109 % of control and the T/C [4] was 92 % of control. For the same compound, the T/C [12] was 111 % of control and the T/C [5] was 103 % of control.

For CCCCCCCCCCCCCCCC(=O)Nc1c(C)cc(C)cc1C, the T/C [14] was 103 % of control, the T/C [15] was 111 % of control and the T/C (endpoint: mean survival time, dose: 400.0 mg/kg/injection, schedule: Q04DX002 (ip), vehicle: saline with Tween-80) was 91 % of control.

For CC(=O)N[C@H](CO)[C@H](O)c1ccc([N+](=O)[O-])cc1, the T/C (endpoint: mean survival time, dose: 75.0 mg/kg/injection, schedule: Q01DX009 (ip), vehicle: saline with Tween-80) was 96 % of control, the T/C (endpoint: mean survival time, dose: 150.0 mg/kg/injection, schedule: Q01DX009 (ip), vehicle: saline with Tween-80) was 96 % of control and the T/C (endpoint: mean survival time, dose: 300.0 mg/kg/injection, schedule: Q01DX009 (ip), vehicle: saline with Tween-80) was 95 % of control.

With COC(=O)C(C)S(=O)(=O)O (centres undefined) the T/C (endpoint: mean survival time, dose: 100.0 mg/kg/injection, schedule: Q04DX002 (ip), vehicle: saline) was 106 % of control, the T/C (endpoint: mean survival time, dose: 200.0 mg/kg/injection, schedule: Q04DX002 (ip), vehicle: saline) was 106 % of control and the T/C (endpoint: mean survival time, dose: 400.0 mg/kg/injection, schedule: Q04DX002 (ip), vehicle: saline) was 95 % of control.

In the case of COc1cccc2c1C(=O)c1c(O)c3c(c(O)c1C2=O)C[C@@](O)(C(=O)COC(=O)c1cccnc1)C[C@@H]3OC1CC(N)C(O)C(C)O1 (some centres undefined), the T/C (endpoint: mean survival time, dose: 0.25 mg/kg/injection, schedule: Q01DX009 (ip), vehicle: water) is reported as 104 % of control, the T/C (endpoint: mean survival time, dose: 0.4 mg/kg/injection, schedule: Q01DX009 (ip), vehicle: saline with Tween-80) is reported as 120 % of control and the T/C (endpoint: mean survival time, dose: 0.5 mg/kg/injection, schedule: Q01DX009 (ip), vehicle: water) is reported as 109 % of control. The T/C (endpoint: mean survival time, dose: 1.0 mg/kg/injection, schedule: Q01DX009 (ip), vehicle: water) was 122 % of control, the T/C (endpoint: mean survival time, dose: 1.5 mg/kg/injection, schedule: Q01DX009 (ip), vehicle: saline) was 168 % of control and the T/C (endpoint: mean survival time, dose: 2.0 mg/kg/injection, schedule: Q01DX009 (ip), vehicle: water) was 120 % of control. The T/C (endpoint: mean survival time, dose: 4.0 mg/kg/injection, schedule: Q01DX009 (ip), vehicle: water) was 108 % of control.

With CN(C)c1ncnc(-c2ccncc2)n1 the T/C [14] was 88 % of control and the T/C [15] was 100 % of control.

With Nc1ncnc2oc(-c3ccccc3)c(-c3ccccc3)c12 the T/C [8] was 87 % of control, the T/C [9] was 89 % of control and the T/C [10] was 87 % of control.

For CC1(C)OCC(CO)([N+](=O)[O-])CO1, the T/C [1] was 96 % of control.

CCOC(=O)CC(=O)c1ccccc1 was tested, and the T/C [7] was 96 % of control, the T/C [12] was 102 % of control and the T/C [13] was 89 % of control.

N#CCC(C#N)C1C=CCC1 (centres undefined) was tested, and the T/C (endpoint: mean survival time, dose: 3.13 mg/kg/injection, schedule: Q04DX003 (ip), vehicle: saline) was 98 % of control and the T/C (endpoint: mean survival time, dose: 6.25 mg/kg/injection, schedule: Q04DX003 (ip), vehicle: saline) was 101 % of control.

For CC1=C(C(N)=O)C(c2ccccc2)NC(=S)N1 (centres undefined), the T/C (endpoint: median survival time, dose: 25.0 mg/kg/injection, schedule: Q01DX009 (ip), vehicle: Klucel (hydroxypropylcellulose) (HPC)) was 101 % of control, the T/C (endpoint: median survival time, dose: 50.0 mg/kg/injection, schedule: Q01DX009 (ip), vehicle: Klucel (hydroxypropylcellulose) (HPC)) was 105 % of control and the T/C (endpoint: median survival time, dose: 100.0 mg/kg/injection, schedule: Q01DX009 (ip), vehicle: Klucel (hydroxypropylcellulose) (HPC)) was 102 % of control. For the same compound, the T/C (endpoint: median survival time, dose: 200.0 mg/kg/injection, schedule: Q01DX009 (ip), vehicle: Klucel (hydroxypropylcellulose) (HPC)) was 112 % of control and the T/C (endpoint: median survival time, dose: 400.0 mg/kg/injection, schedule: Q01DX009 (ip), vehicle: Klucel (hydroxypropylcellulose) (HPC)) was 103 % of control.

In the case of COc1cc(C(=O)C=C(C(F)(F)F)C(F)(F)F)cc(OC)c1OC, the T/C [1] is reported as 101 % of control and the T/C [2] is reported as 98 % of control.

With c1ccc(OCC2(N3CCCCC3)CCCC2)cc1 the T/C (endpoint: mean survival time, dose: 25.0 mg/kg/injection, schedule: Q04DX002 (ip), vehicle: saline with Tween-80) was 103 % of control and the T/C (endpoint: mean survival time, dose: 50.0 mg/kg/injection, schedule: Q04DX002 (ip), vehicle: saline with Tween-80) was 108 % of control.
